Data: patent US12336536B2, “Method for controlling herbicide resistant or tolerant weeds” (BASF Agro B.V., priority 2015, dated 2025)

What was measured:
[1] = system: blackgrass (ALOMY) biotypes; assay: Greenhouse test, control of resistant weed biotypes, post-emergence, blackgrass; assay type: in vivo, Alopecurus myosuroides; details: post-emergence, scale 0 to 100
Experimental: (§1) The herbicidal activity of herbicide A on resistant weed biotypes was tested in comparison with certain commercial herbicides by the following greenhouse experiments:
(§2) The culture containers used were plastic flowerpots containing loamy sand with approximately 3.0% of humus as the substrate. The seeds of the test plants were sown separately for each species. Six blackgrass (ALOMY) (10-103, 10-170, 09-591, 10-123, 11-215, 11-146) and six ryeg rass (LOLMU) (12-166, 12-143, 12-165, 12-307, 13-304, 13-313) biotypes with varying degrees of resistance towards a range of modes of action according to the HRAC (Herbicide Resistance Action Committee) classification on mode of action 2010 (see e.g http://www.hracglobal.com/pages/classificationofherbicidesiteofaction.aspx) were tested alongside two non-resistant biotypes (14-116 and 13-243), see Tables 1 and 2 below.
(§3) For the post-emergence treatment, the test plants were first grown to a height of 3 to 15 cm, depending on the plant habit, and only then treated with the active ingredients which had been suspended or emulsified in water. For this purpose, the test plants were either sown directly and grown in the same containers, or they were first grown separately as seedlings and transplanted into the test containers a few days prior to treatment.
(§4) Depending on the species, the plants were kept at 10-25° C. or 20-35° C. The test period extended over 2 to 4 weeks. During this time, the plants were tended, and their response to the individual treatments was evaluated.
(§5) The racemic mixture (±)-2-exo-(2-Methylbenzyloxy)-1-methyl-4-isopropyl-7-oxabicyclo[2.2.1]heptane was used as herbicide A and formulated as emulsifiable concentrates with an active ingredient concentration of 50 g/l, 100 g/l or 750 g/l respectively.
(§6) Flufenacet was used as a commercial concentrated solution formulation having an active ingredient concentration of 500 g/l (Cadou).
(§7) Imazamox was used as a water dispersible granule (70% WG).
(§8) Evaluation of the herbicidal activity was carried out using a scale from 0 to 100. 100 means complete destruction of at least the aerial moieties, and 0 means no damage, or normal course of growth. A good herbicidal activity is given at values of at least 70 and a very good herbicidal activity is given at values of at least 85.

[2] = system: ryegrass (LOLMU) biotypes; assay: Greenhouse test, control of resistant weed biotypes, post-emergence, ryegrass; assay type: in vivo, Lolium multiflorum; details: post-emergence, scale 0 to 100
Experimental: as §1, §2, §3, §4, §5, §6, §7, §8

BRSNW = assay: Greenhouse test, solo and combination, post-emergence, 20 DAT; assay type: in vivo, Brassica napus; details: solo application 15 g ai/ha
Experimental: (§9) The test plants have been seeded, separately for each species, in plastic containers in sandy loamy soil containing 5% of organic matter.
(§10) For the post-emergence treatment, the plants were first grown to the 2 leaf station (GS 12) and applied at GS 12-19 depending on the species. The herbicidal compositions were suspended or emulsified in water as distribution medium and sprayed using finely distributing nozzles.
(§11) The plants have been cultivated due to their individual requirements at 10-25° C. and 20-35° C. The plants were irrigated due to their necessity.
(§12) The racemic mixture (±)-2-exo-(2-Methylbenzyloxy)-1-methyl-4-isopropyl-7-oxabicyclo[2.2.1]heptane was used as herbicide A and formulated as emulsifiable concentrate having an active ingredient concentration of 750 g/l.
(§13) Cyhalofop-butyl (herbicide B.5) was used as an emulsifiable concentrate (EC) formulation having an active ingredient concentration of 200 g/l.
(§14) Metsulfuron-methyl (herbicide B.53) was used as a water soluble granule (SG) formulation having an active ingredient concentration of 20%.
(§15) Bispyribac-sodium (herbicide B.23) was used as a soluble concentrate (SL) formulation having an active ingredient concentration of 408 g/l.
(§16) Quizalofop-P-ethyl (herbicide B.217) was used as a suspension concentrate (SC) formulation having an active ingredient concentration of 106 g/l.
(§17) In the following experiments, the herbicidal activity for the individual herbicide compounds (solo and mixture applications) was assessed 20 days after treatment (DAT).
(§18) The evaluation for the damage on undesired weeds caused by the chemical compositions was carried out using a scale from 0 to 100%, compared to the untreated control plants. Here, 0 means no damage and 100 means complete destruction of the plants.
(§19) The plants used in the greenhouse experiments belonged to the following species:
(§20) E=X+Y−(X·Y/100) • where X=effect in percent using herbicide A at an application rate a; • Y=effect in percent using herbicide B at application rate b; • E=expected effect (in %) of herbicide A+herbicide B at application rates a+b.
(§21) The value E corresponds to the effect (plant damage or injury) which is to be expected if the activity of the individual compounds is additive. If the observed effect is higher than the value E calculated according to the Colby equation, a synergistic effect is present.
(§22) Tables 3 to 6 below relate the herbicidal activity, in greenhouse trials, of the individual actives and the combination applied at different rates and ratios, in post-emergence application at 20 days after treatment (DAT).

ALOMY = assay: as above; assay type: in vivo, Alopecurus myosuroides
Experimental: as §9, §10, §11, §12, §13, §14, §15, §16, §17, §18, §19, §20, §21, §22

LOLRI = assay: as above; assay type: in vivo, Lolium rigidum; details: solo application 60 g ai/ha
Experimental: as §9, §10, §11, §12, §13, §14, §15, §16, §17, §18, §19, §20, §21, §22

MATIN = assay: as above; assay type: in vivo, Matricaria inodora
Experimental: as §9, §10, §11, §12, §13, §14, §15, §16, §17, §18, §19, §20, §21, §22

GALAP = assay: as above; assay type: in vivo, Galium aparine
Experimental: as §9, §10, §11, §12, §13, §14, §15, §16, §17, §18, §19, §20, §21, §22

PAPRH = assay: as above; assay type: in vivo, Papaver rhoeas
Experimental: as §9, §10, §11, §12, §13, §14, §15, §16, §17, §18, §19, §20, §21, §22

[3] = BT 09-591, resistant HRAC group A, B, K, 125 g ai/ha
[4] = BT 10-103, resistant HRAC group A, B, K, 125 g ai/ha
[5] = BT 10-123, resistant HRAC group A, B, C, 125 g ai/ha
[6] = BT 10-170, resistant HRAC group A, B, K, 125 g ai/ha
[7] = BT 11-146, resistant HRAC group K, 125 g ai/ha
[8] = BT 11-215, resistant HRAC group A, B, C, E, K, 125 g ai/ha
[9] = BT 14-116, Sensitive standard, 125 g ai/ha
[10] = BT 12-143, resistant HRAC group A, B, C, E, K, 125 g ai/ha
[11] = BT 12-165, resistant HRAC group A, B, E, K, 125 g ai/ha
[12] = BT 12-166, resistant HRAC group A, B, E, K, 125 g ai/ha
[13] = BT 12-307, resistant HRAC group B, F, K, O, 125 g ai/ha
[14] = BT 13-243, Sensitive standard, 125 g ai/ha
[15] = BT 13-304, resistant HRAC group A, B, E, K, 125 g ai/ha
[16] = BT 13-313, resistant HRAC group A, B, C, E, K, 125 g ai/ha

## CC(C)N(C(=O)COc1nnc(C(F)(F)F)s1)c1ccc(F)cc1 [Flufenacet, flufenacet]
[1]; [3]
  Herbicidal activity: 80
[1]; BT 09-591, resistant HRAC group A, B, K, 250 g ai/ha
  Herbicidal activity: 95
[1]; [4]
  Herbicidal activity: 75
[1]; BT 10-103, resistant HRAC group A, B, K, 250 g ai/ha
  Herbicidal activity: 90
[1]; [5]
  Herbicidal activity: 80
[1]; BT 10-123, resistant HRAC group A, B, C, 250 g ai/ha
  Herbicidal activity: 95
[1]; [6]
  Herbicidal activity: 90
[1]; BT 10-170, resistant HRAC group A, B, K, 250 g ai/ha
  Herbicidal activity: 95
[1]; [7]
  Herbicidal activity: 70
[1]; BT 11-146, resistant HRAC group K, 250 g ai/ha
  Herbicidal activity: 80
[1]; [8]
  Herbicidal activity: 75
[1]; BT 11-215, resistant HRAC group A, B, C, E, K, 250 g ai/ha
  Herbicidal activity: 95
[1]; [9]
  Herbicidal activity: 98
[1]; BT 14-116, Sensitive standard, 250 g ai/ha
  Herbicidal activity: 100
[2]; [10]
  Herbicidal activity: 60
[2]; BT 12-143, resistant HRAC group A, B, C, E, K, 250 g ai/ha
  Herbicidal activity: 60
[2]; [11]
  Herbicidal activity: 60
[2]; BT 12-165, resistant HRAC group A, B, E, K, 250 g ai/ha
  Herbicidal activity: 60
[2]; [12]
  Herbicidal activity: 10
[2]; BT 12-166, resistant HRAC group A, B, E, K, 250 g ai/ha
  Herbicidal activity: 60
[2]; [13]
  Herbicidal activity: 15
[2]; BT 12-307, resistant HRAC group B, F, K, O, 250 g ai/ha
  Herbicidal activity: 15
[2]; [14]
  Herbicidal activity: 80
[2]; BT 13-243, Sensitive standard, 250 g ai/ha
  Herbicidal activity: 95
[2]; [15]
  Herbicidal activity: 75
[2]; BT 13-304, resistant HRAC group A, B, E, K, 250 g ai/ha
  Herbicidal activity: 75
[2]; [16]
  Herbicidal activity: 35
[2]; BT 13-313, resistant HRAC group A, B, C, E, K, 250 g ai/ha
  Herbicidal activity: 50

## COCc1cnc(C2=NC(C)(C(C)C)C(=O)N2)c(C(=O)O)c1 (centres unmarked) [Imazamox, imazamox]
[1]; BT 09-591, resistant HRAC group A, B, K, 62.5 g ai/ha
  Herbicidal activity: 20
[1]; [3]
  Herbicidal activity: 50
[1]; BT 10-103, resistant HRAC group A, B, K, 62.5 g ai/ha
  Herbicidal activity: 60
[1]; [4]
  Herbicidal activity: 70
[1]; BT 10-123, resistant HRAC group A, B, C, 62.5 g ai/ha
  Herbicidal activity: 60
[1]; [5]
  Herbicidal activity: 70
[1]; BT 10-170, resistant HRAC group A, B, K, 62.5 g ai/ha
  Herbicidal activity: 80
[1]; [6]
  Herbicidal activity: 95
[1]; BT 11-146, resistant HRAC group K, 62.5 g ai/ha
  Herbicidal activity: 75
[1]; [7]
  Herbicidal activity: 75
[1]; BT 11-215, resistant HRAC group A, B, C, E, K, 62.5 g ai/ha
  Herbicidal activity: 85
[1]; [8]
  Herbicidal activity: 85
[1]; BT 14-116, Sensitive standard, 62.5 g ai/ha
  Herbicidal activity: 95
[1]; [9]
  Herbicidal activity: 95
[2]; BT 12-143, resistant HRAC group A, B, C, E, K, 62.5 g ai/ha
  Herbicidal activity: 65
[2]; [10]
  Herbicidal activity: 75
[2]; BT 12-165, resistant HRAC group A, B, E, K, 62.5 g ai/ha
  Herbicidal activity: 70
[2]; [11]
  Herbicidal activity: 85
[2]; BT 12-166, resistant HRAC group A, B, E, K, 62.5 g ai/ha
  Herbicidal activity: 85
[2]; [12]
  Herbicidal activity: 98
[2]; BT 12-307, resistant HRAC group B, F, K, O, 62.5 g ai/ha
  Herbicidal activity: 80
[2]; [13]
  Herbicidal activity: 85
[2]; BT 13-243, Sensitive standard, 62.5 g ai/ha
  Herbicidal activity: 90
[2]; [14]
  Herbicidal activity: 85
[2]; BT 13-304, resistant HRAC group A, B, E, K, 62.5 g ai/ha
  Herbicidal activity: 90
[2]; [15]
  Herbicidal activity: 85
[2]; BT 13-313, resistant HRAC group A, B, C, E, K, 62.5 g ai/ha
  Herbicidal activity: 80
[2]; [16]
  Herbicidal activity: 85

## COc1cc(OC)nc(Oc2cccc(Oc3nc(OC)cc(OC)n3)c2C(=O)O)n1 [bispyribac-sodium]
BRSNW
  Herbicidal activity: 98%
ALOMY; solo application 30 g ai/ha
  Herbicidal activity: 0%
ALOMY; solo application 60 g ai/ha
  Herbicidal activity: 0%
LOLRI
  Herbicidal activity: 5%
MATIN; solo application 60 g ai/ha
  Herbicidal activity: 85%
MATIN; solo application 120 g ai/ha
  Herbicidal activity: 90%
GALAP; solo application 15 g ai/ha
  Herbicidal activity: 40%
GALAP; solo application 30 g ai/ha
  Herbicidal activity: 65%
GALAP; solo application 120 g ai/ha
  Herbicidal activity: 95%
PAPRH; solo application 15 g ai/ha
  Herbicidal activity: 0%
PAPRH; solo application 60 g ai/ha
  Herbicidal activity: 50%
PAPRH; solo application 120 g ai/ha
  Herbicidal activity: 50%
